Source: US12636272B2, “Method and composition for inhibiting virus infection” (ARJIL BIOTECH HOLDING COMPANY LIMITED, priority 2020, dated 2026)
Values joined by “and” are separate entries in the source; they are usually repeats but may differ in a detail not shown here. Identical values can stand only once.

Assays:
HBV [1] = test: HBsAg secretion of HepG2.2.15 cells (ELISA); type: cell-based, Hepatitis B virus (HBV)
Text: (§1) Continuous HBV proliferation can be achieved in HepG2.2.15 cells (RRID:CVCL_L855) stably transfected with the HBV genome of the adw2 subtype. HepG2.2.15 cells are used because of the unlimited supply and constant quality and were maintained in Dulbecco's modified Eagle medium (DMEM; Invitrogen) supplemented with 10% heat-inactivated fetal bovine serum (FBS; Thermo) plus 100 units of penicillin and […] of streptomycin per ml (both from Invitrogen).
(§2) To test whether AR100-DS1 had any effect on HBV genome replication, assembly, or secretion, HepG2.2.15 cells that were stably transfected with HBV genome, were used to incubate with AR 100-DS1 for 48 hours, then HBsAg and HBV DNA collected from medium were measured by ELISA and real-time PCR.

HepG2.2.15 cells = test: Cell viability of HepG2.2.15 cells; type: cell-based
HuS-E/2 cells = test: Cell viability of HuS-E/2 cells (MTT assay); type: cell-based; details: 0-1000 μg/ml AR100-DS1 for 48 h
HBV [2] = test: HBV infectivity/entry in HuS-E/2 cells (HBsAg ELISA, HBV mRNA real-time PCR); type: cell-based, Hepatitis B virus (HBV)
HBV [3] = test: HBV DNA level in the culture medium of HepG2.2.15 cells (real-time PCR); type: cell-based, Hepatitis B virus (HBV)
Text: as §1
The culture medium from drug-treated HepG2.2.15 cells is clarified by centrifugation at 1,000× g at 4° C. for 10 min, and then the supernatant is layered on top of a 20% sucrose cushion (20% sucrose, 20 mM HEPES, pH 7:4, 0.1% bovine serum albumin [BSA]) and centrifuged at 197,000× g for 3 h at 4° C. to pellet the HBV particles, which are then concentrated 100 fold to detect HBV DNA.
Total DNA is extracted with a Genomic DNA isolation kit (Nexttee Biotechnologie, Germany). Total RNA is isolated from cultured cells using TRIzol® reagent (Invitrogen). […] The results are analyzed with the iCycler iQ real-time PCR detection system (Bio-Rad). […]
as §2

SARS-COV-2 (NTU13) = test: Plaque reduction assay in Vero E6 cells; type: cell-based; details: 1 μM RDV*
[4] = HuS-E/2 cells, 0, 5 and 10 of AR100-DS1 during infection for 18 h, then 48 hours

| SMILES | secretion of HBsAg (HBV [1]; 0, 20 and 40 μg/ml AR100-DS1, HepG2.2.15 cells (FIG. 1C)) | secretion of HBsAg reduced to (HBV [1]; 10 μg/ml AR100-DS1, 48 hours, HepG2.2.15 cells) [%] | secretion of HBsAg reduced to (HBV [1]; 20 μg/ml AR100-DS1, 48 hours, HepG2.2.15 cells (FIGS. 1A and 1B)) | secretion of HBsAg reduced to (HBV [1]; 50 μg/ml AR100-DS1, 48 hours, HepG2.2.15 cells) [%] | cell viability (HepG2.2.15 cells) | cell viability (HuS-E/2 cells) | entry of HBV in HuS-E/2 cells (HBV [2]; HuS-E/2 cells) | HBV mRNA expression level (HBV [2]; [4]) | secretion of HBsAg in the medium (HBV [2]; [4]) | HBV DNA level in medium (HBV [3]; 20 μg/ml AR100-DS1, 48 hours) | HBV DNA level in medium (HBV [3]; 40 μg/ml AR100-DS1, 48 hours) | Inhibition (%) to DMSO mean (SARS-COV-2 (NTU13)) [%] | Inhibition (%) to virus mean (SARS-COV-2 (NTU13)) [%] | Plaque number per well mean (SARS-COV-2 (NTU13)) |
| --- | --- | --- | --- | --- | --- | --- | --- | --- | --- | --- | --- | --- | --- | --- |
| C=C1C(=O)O[C@H]2/C=C(\C)CC3C=C(CC/C=C(\C)CC[C@H]12)C(=O)O3 (some centres unmarked) [AR100-DS1] | significantly inhibited | 75.25 | 69.77% and 63.00% | 56.78 | marked dose-dependent reduction in cell viability | marked dose-dependent reduction in cell viability | could not prevent HBV entering into HuS-E/2 cells | neither secretion of HBsAg in the medium nor HBV mRNA expression level showed dose-dependent reduction | neither secretion of HBsAg in the medium nor HBV mRNA expression level showed dose-dependent reduction | significantly reduced | significantly reduced | – | – | – |
| CCC(CC)COC(=O)[C@H](C)N[P@](=O)(OC[C@H]1O[C@@](C#N)(c2ccc3c(N)ncnn23)[C@H](O)[C@@H]1O)Oc1ccccc1 [RDV, remdesivir] | – | – | – | – | – | – | – | – | – | – | – | 80 | 82 | 32 |
